Values after ≈ are worked out from the molar mass of the structure shown. Active and inactive are the calls of the source. No cut-off for these calls is given here.
How the values were obtained:
Candida albicans [1] = assay: Antifungal activity against Candida albicans MY 1055 after 24 hrs by NCCLS broth microdilution method; assay type: functional; conditions: for MIC: MY 1055, 24 h
Cryptococcus neoformans [2] = assay: Antifungal activity against Cryptococcus neoformans MY 2061 after 40 hrs by NCCLS broth microdilution method; assay type: functional
[3] = test system: Meyerozyma guilliermondii; assay: Antifungal activity against Candida guilliermondii CLY 346 after 24 hrs by NCCLS broth microdilution method; assay type: functional
[4] = test system: Meyerozyma guilliermondii; assay: Antifungal activity against Candida guilliermondii CLY 308 after 24 hrs by NCCLS broth microdilution method; assay type: functional
Nakaseomyces glabratus [5] = assay: Antifungal activity against Candida glabrata MY 1381 after 24 hrs by NCCLS broth microdilution method; assay type: functional
Nakaseomyces glabratus [6] = assay: Antifungal activity against Candida glabrata CLY 574 after 24 hrs by NCCLS broth microdilution method; assay type: functional
Candida albicans [7] = assay: Antifungal activity against Candida albicans SC 53124 after 24 hrs by NCCLS broth microdilution method; assay type: functional
Candida albicans [8] = assay: Antifungal activity against fluconazole-resistant Candida albicans MY 2301 after 24 hrs by NCCLS broth microdilution method; assay type: functional
Pichia kudriavzevii = assay: Antifungal activity against Candida krusei CLY 549 after 24 hrs by NCCLS broth microdilution method; assay type: functional
Clavispora lusitaniae = assay: Antifungal activity against Candida lusitaniae MY 1396 after 24 hrs by NCCLS broth microdilution method; assay type: functional
Candida parapsilosis = assay: Antifungal activity against Candida parapsilosis ATCC 22019 after 24 hrs by NCCLS broth microdilution method; assay type: functional
Candida tropicalis = assay: Antifungal activity against Candida tropicalis MY 1012 after 40 hrs by NCCLS broth microdilution method; assay type: functional
Cryptococcus neoformans [9] = assay: Antifungal activity against Cryptococcus neoformans H 99 after 40 hrs by NCCLS broth microdilution method; assay type: functional
[10] = test system: Cytochrome b (Saccharomyces cerevisiae (strain ATCC 204508 / S288c) (Baker's yeast)), P00163 [L198F]; assay: Inhibition of Saccharomyces cerevisiae isolate 1 cytochrome bc1 complex harboring cytochrome b L198F mutant
[11] = test system: Cytochrome b (Candida albicans (strain SC5314 / ATCC MYA-2876) (Yeast)), P0C8L0 [G37S]; assay: Inhibition of Candida albicans isolate 6 cytochrome bc1 complex harboring cytochrome b G37S mutant
[12] = test system: Cytochrome b (Candida albicans (strain SC5314 / ATCC MYA-2876) (Yeast)), P0C8L0 [G37D]; assay: Inhibition of Candida albicans isolate 4 cytochrome bc1 complex harboring cytochrome b G37D mutant
[13] = test system: Cytochrome b (Candida albicans (strain SC5314 / ATCC MYA-2876) (Yeast)), P0C8L0 [G37C]; assay: Inhibition of Candida albicans isolate 3 cytochrome bc1 complex harboring cytochrome b G37C mutant
[14] = test system: Cytochrome b (Candida albicans (strain SC5314 / ATCC MYA-2876) (Yeast)), P0C8L0 [Q22E]; assay: Inhibition of Candida albicans isolate 2 cytochrome bc1 complex harboring cytochrome b Q22E mutant
[15] = test system: Cytochrome b (Candida albicans (strain SC5314 / ATCC MYA-2876) (Yeast)), P0C8L0 [S20I]; assay: Inhibition of Candida albicans isolate 1 cytochrome bc1 complex harboring cytochrome b S20I mutant
[16] = test system: Cytochrome b (Saccharomyces cerevisiae (strain ATCC 204508 / S288c) (Baker's yeast)), P00163 [G37S]; assay: Inhibition of Saccharomyces cerevisiae isolate 2 cytochrome bc1 complex harboring cytochrome b G37S mutant
[17] = test system: Cytochrome b (Saccharomyces cerevisiae (strain ATCC 204508 / S288c) (Baker's yeast)), P00163 [G37D]; assay: Inhibition of Saccharomyces cerevisiae isolate 2 cytochrome bc1 complex harboring cytochrome b G37D mutant
[18] = test system: Cytochrome b (Saccharomyces cerevisiae (strain ATCC 204508 / S288c) (Baker's yeast)), P00163 [Q22T]; assay: Inhibition of Saccharomyces cerevisiae isolate 2 cytochrome bc1 complex harboring cytochrome b Q22T mutant
[19] = test system: Cytochrome b (Saccharomyces cerevisiae (strain ATCC 204508 / S288c) (Baker's yeast)), P00163 [Q22E]; assay: Inhibition of Saccharomyces cerevisiae isolate 3 cytochrome bc1 complex harboring cytochrome b Q22E mutant
[20] = test system: Cytochrome b (Saccharomyces cerevisiae (strain ATCC 204508 / S288c) (Baker's yeast)), P00163 [S20L]; assay: Inhibition of Saccharomyces cerevisiae isolate 1 cytochrome bc1 harboring cytochrome b S20L mutant
[21] = test system: Cytochrome b (Saccharomyces cerevisiae (strain ATCC 204508 / S288c) (Baker's yeast)), P00163 [S20T]; assay: Inhibition of Saccharomyces cerevisiae isolate 1 cytochrome bc1 harboring cytochrome b S20T mutant
[22] = Selectivity ratio of MIC for Candida albicans MY 1055 to IC50 for Candida albicans MY 1055 NADH:cytochrome c oxidoreductase; assay type: functional
[23] = Inhibition of Candida albicans MY 1055 NADH:cytochrome c oxidoreductase

Chain of Cytochrome b (Candida albicans (strain SC5314 / ATCC MYA-2876) (Yeast)), P0C8L0 [G37S] (P0C8L0 whole entry G37S): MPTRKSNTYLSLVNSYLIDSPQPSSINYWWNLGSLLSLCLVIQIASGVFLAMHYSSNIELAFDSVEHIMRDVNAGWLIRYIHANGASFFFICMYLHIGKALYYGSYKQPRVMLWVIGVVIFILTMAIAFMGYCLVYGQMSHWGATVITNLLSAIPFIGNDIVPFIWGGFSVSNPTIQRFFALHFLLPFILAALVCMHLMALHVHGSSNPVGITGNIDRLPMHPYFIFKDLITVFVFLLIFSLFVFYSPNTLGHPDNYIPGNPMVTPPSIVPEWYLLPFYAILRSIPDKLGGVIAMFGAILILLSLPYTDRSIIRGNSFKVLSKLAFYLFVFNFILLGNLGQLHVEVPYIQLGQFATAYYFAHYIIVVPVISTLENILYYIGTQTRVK
Chain of Cytochrome b (Saccharomyces cerevisiae (strain ATCC 204508 / S288c) (Baker's yeast)), P00163 [S20T] (P00163 whole entry S20T): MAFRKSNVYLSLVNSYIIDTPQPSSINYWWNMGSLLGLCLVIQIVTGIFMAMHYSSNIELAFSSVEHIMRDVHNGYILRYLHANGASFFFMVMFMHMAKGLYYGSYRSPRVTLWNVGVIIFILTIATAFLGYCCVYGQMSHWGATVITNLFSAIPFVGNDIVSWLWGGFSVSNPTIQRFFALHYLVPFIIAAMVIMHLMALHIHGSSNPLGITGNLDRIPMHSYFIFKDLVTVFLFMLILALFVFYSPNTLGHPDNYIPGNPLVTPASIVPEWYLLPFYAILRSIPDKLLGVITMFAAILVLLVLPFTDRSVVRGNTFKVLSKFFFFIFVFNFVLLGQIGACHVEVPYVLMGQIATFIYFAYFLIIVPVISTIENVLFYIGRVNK
Chain of Cytochrome b (Candida albicans (strain SC5314 / ATCC MYA-2876) (Yeast)), P0C8L0 [S20I] (P0C8L0 whole entry S20I): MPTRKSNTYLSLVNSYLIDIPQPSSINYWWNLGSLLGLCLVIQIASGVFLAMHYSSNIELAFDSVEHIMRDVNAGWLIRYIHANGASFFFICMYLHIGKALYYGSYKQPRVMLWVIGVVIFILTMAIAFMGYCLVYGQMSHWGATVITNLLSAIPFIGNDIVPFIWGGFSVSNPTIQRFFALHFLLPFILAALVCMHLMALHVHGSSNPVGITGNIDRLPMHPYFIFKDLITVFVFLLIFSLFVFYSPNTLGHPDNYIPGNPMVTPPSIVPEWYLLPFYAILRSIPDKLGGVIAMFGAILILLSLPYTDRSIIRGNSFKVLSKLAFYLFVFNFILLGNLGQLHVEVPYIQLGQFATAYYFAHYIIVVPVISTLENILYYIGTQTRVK
Chain of Cytochrome b (Saccharomyces cerevisiae (strain ATCC 204508 / S288c) (Baker's yeast)), P00163 [G37D] (P00163 whole entry G37D): as the sequence (P00163 whole entry S20T) above, with T20S, G37D counted along it
Chain of Cytochrome b (Saccharomyces cerevisiae (strain ATCC 204508 / S288c) (Baker's yeast)), P00163 [Q22E] (P00163 whole entry Q22E): as the sequence (P00163 whole entry S20T) above, with T20S, Q22E counted along it
Chain of Cytochrome b (Saccharomyces cerevisiae (strain ATCC 204508 / S288c) (Baker's yeast)), P00163 [Q22T] (P00163 whole entry Q22T): as the sequence (P00163 whole entry S20T) above, with T20S, Q22T counted along it
Chain of Cytochrome b (Candida albicans (strain SC5314 / ATCC MYA-2876) (Yeast)), P0C8L0 [G37C] (P0C8L0 whole entry G37C): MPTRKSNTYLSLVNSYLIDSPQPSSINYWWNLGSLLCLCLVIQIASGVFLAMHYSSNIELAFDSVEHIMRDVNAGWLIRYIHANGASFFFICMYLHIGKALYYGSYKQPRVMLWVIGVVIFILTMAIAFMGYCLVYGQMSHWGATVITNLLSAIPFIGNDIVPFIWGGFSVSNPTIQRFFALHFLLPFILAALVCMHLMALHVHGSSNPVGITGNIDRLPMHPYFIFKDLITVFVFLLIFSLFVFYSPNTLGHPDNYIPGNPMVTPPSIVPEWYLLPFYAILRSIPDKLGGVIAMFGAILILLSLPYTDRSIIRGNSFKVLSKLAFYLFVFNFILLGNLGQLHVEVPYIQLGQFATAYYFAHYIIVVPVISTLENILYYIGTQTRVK
Chain of Cytochrome b (Saccharomyces cerevisiae (strain ATCC 204508 / S288c) (Baker's yeast)), P00163 [S20L] (P00163 whole entry S20L): as the sequence (P00163 whole entry S20T) above, with T20L counted along it
Chain of Cytochrome b (Candida albicans (strain SC5314 / ATCC MYA-2876) (Yeast)), P0C8L0 [Q22E] (P0C8L0 whole entry Q22E): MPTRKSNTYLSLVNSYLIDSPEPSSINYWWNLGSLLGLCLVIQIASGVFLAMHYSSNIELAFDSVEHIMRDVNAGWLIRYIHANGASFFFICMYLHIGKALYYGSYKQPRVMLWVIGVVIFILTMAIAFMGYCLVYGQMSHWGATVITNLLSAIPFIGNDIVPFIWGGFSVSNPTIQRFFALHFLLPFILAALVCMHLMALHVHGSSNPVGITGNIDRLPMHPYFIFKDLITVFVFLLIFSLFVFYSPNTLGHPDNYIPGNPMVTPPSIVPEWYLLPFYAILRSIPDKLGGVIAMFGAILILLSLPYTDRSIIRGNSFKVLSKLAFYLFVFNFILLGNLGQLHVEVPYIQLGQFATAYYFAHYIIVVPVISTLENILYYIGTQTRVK
Chain of Cytochrome b (Saccharomyces cerevisiae (strain ATCC 204508 / S288c) (Baker's yeast)), P00163 [L198F] (P00163 whole entry L198F): as the sequence (P00163 whole entry S20T) above, with T20S, L198F counted along it
Chain of Cytochrome b (Saccharomyces cerevisiae (strain ATCC 204508 / S288c) (Baker's yeast)), P00163 [G37S] (P00163 whole entry G37S): as the sequence (P00163 whole entry S20T) above, with T20S, G37S counted along it
Chain of Cytochrome b (Candida albicans (strain SC5314 / ATCC MYA-2876) (Yeast)), P0C8L0 [G37D] (P0C8L0 whole entry G37D): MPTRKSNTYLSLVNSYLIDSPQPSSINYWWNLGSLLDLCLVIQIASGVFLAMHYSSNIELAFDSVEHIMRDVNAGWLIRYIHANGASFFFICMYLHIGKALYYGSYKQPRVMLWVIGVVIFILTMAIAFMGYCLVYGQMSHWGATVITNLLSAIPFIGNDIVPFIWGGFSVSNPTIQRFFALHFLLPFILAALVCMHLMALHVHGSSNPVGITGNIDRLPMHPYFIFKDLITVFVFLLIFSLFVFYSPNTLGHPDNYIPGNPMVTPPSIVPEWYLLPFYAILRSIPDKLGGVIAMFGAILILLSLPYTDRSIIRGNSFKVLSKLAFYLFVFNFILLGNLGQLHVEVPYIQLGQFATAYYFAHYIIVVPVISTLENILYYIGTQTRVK

Compound | MIC (Candida albicans [1]) [µg/mL] | Activity (Cryptococcus neoformans [2]) | Activity [3] | Activity [4] | Activity (Nakaseomyces glabratus [5]) | Activity (Nakaseomyces glabratus [6]) | Activity (Candida albicans [7]) | Activity (Candida albicans [8]) | Activity (Candida albicans [1]) | Activity (Pichia kudriavzevii) | Activity (Clavispora lusitaniae) | Activity (Candida parapsilosis) | Activity (Candida tropicalis) | Activity (Cryptococcus neoformans [9]) | also measured
C/C=C/[C@@H]1[C@H]2C[C@@H](C)CC[C@@H]2C(C)=C[C@H]1/C(=N\O)c1c(O)c(-c2ccc(O)cc2)c[nH]c1=O | > 10 | – | – | – | – | – | – | – | – | – | – | – | – | – | –
C/C=C/[C@@H]1[C@H]2C[C@@H](C)CC[C@@H]2C(C)=C[C@H]1/C1=N/NCCOCC12C(=O)NC=C(c1ccc(O)cc1)C2=O (some centres not stated) | > 10 | – | – | – | – | – | – | – | – | – | – | – | – | – | –
CC[C@H](C)C[C@H](C)CCCCCCCCC(=O)N[C@H]1C[C@@H](O)[C@@H](NCCN)NC(=O)[C@@H]2[C@@H](O)CCN2C(=O)[C@H]([C@H](O)CCN)NC(=O)[C@H]([C@H](O)[C@@H](O)c2ccc(O)cc2)NC(=O)[C@@H]2C[C@@H](O)CN2C(=O)[C@H]([C@@H](C)O)NC1=O | – | Active | Active | Active | Active | Active | Active | Active | Active | Active | Active | Active | Active | Active | –
CO/C(=C/C(N)=O)[C@H](C)[C@H](/C=C/c1csc(-c2csc([C@@H](C)/C=C/C=C/C(C)C)n2)n1)OC | – | – | – | – | – | – | – | – | – | – | – | – | – | – | inhibition [10]: Active; inhibition [11]: Active; inhibition [12]: Active; inhibition [13]: Active; inhibition [14]: Active; inhibition [15]: Active; inhibition [16]: Active; inhibition [17]: Active; inhibition [18]: Active; inhibition [19]: Active; inhibition [20]: Active; inhibition [21]: Active
C[C@@H]1[C@H](O)[C@@H](C)/C=C/C=C/C=C/C=C/C=C/C=C/C=C/[C@H](O[C@@H]2O[C@H](C)[C@@H](O)[C@H](N)[C@@H]2O)C[C@@H]2O[C@](O)(C[C@@H](O)C[C@@H](O)[C@H](O)CC[C@@H](O)C[C@@H](O)CC(=O)O[C@H]1C)C[C@H](O)[C@H]2C(=O)O | – | Active | Active | Active | Active | Active | Active | Active | Active | Active | Active | Active | Active | Active | –
OC(Cn1cncn1)(Cn1cncn1)c1ccc(F)cc1F | – | Active | Active | Active | Active | Active | Active | Active | Active | Active | Active | Active | Active | Active | –
C/C=C/[C@H]1C(c2noc3c(-c4ccc(O)cc4)c[nH]c(=O)c23)C=C(C)[C@H]2CC[C@H](C)C[C@@H]21 (single isomer, unassigned) | > 10 | – | – | – | – | – | – | – | – | – | – | – | – | – | –
C/C=C/[C@H]1C(c2n[nH]c3c(-c4ccc(O)cc4)c[nH]c(=O)c23)C=C(C)[C@H]2CC[C@H](C)C[C@@H]21 (single isomer, unassigned) | 0.25 (≈ 0.582 µM) | – | – | – | – | – | – | – | – | – | – | – | – | – | Ratio [22]: 10; IC50 [23]: 0.003 µg/mL (≈ 0.00698 µM)

From ChEMBL document CHEMBL2177002, “Antifungal spectrum, in vivo efficacy, and structure-activity relationship of ilicicolin h” (ACS Med Chem Lett, 2012)
